Measurements from patent US20120149645A1, “COMPOSITIONS AND MODULATION OF MYOCYTE ENHANCER FACTOR 2 (MEF2)” (EMORY UNIVERSITY, priority 2010, published 2012).

Legend:
MEF2D binding to ND6 = test: ChIP assay of MEF2D binding to the ND6 MEF2 site in purified mitochondria; type: cell-based, mouse; settings: for binding of mitochondrial MEF2D to the ND6 MEF2 site: SN4741 cells, MPP+ 25 μM or rotenone 100 nM for 12 hours
From the text: (§1) (A) Mitochondria-targeting MEF2D (Mt2D) and mitochondria-targeting dominant-negative MEF2D (Mt2Ddn), which lacks the transactivation domain (TAD). […] Control indicates the control vector group. (C) Effects of Mt2D or Mt2Ddn on ND6 expression in SN4741 cells. Over-expression of Mt2Ddn in SN4741 cells reduced ND6 but not PPAR-γ coactivator 1 (PGC1) expression by western blotting (n=4, **p<0.01). Control indicates the control vector group. (D) Effects of over-expression of Mt2D or Mt2Ddn on mRNA levels of mitochondria encoded genes. […] Control indicates the control vector group. (E) Effects of Mt2D or Mt2Ddn on mtDNA L-strand transcription initiation in vitro (n=3; **P<0.01). A human mtDNA fragment containing mitochondrial L-strand promoter (LSP) and ND6 gene was used in the in vitro transcription assay. […] (F) Effects of Mt2D or Mt2Ddn on mtDNA de novo transcription in vivo (n=3; **P<0.01). Control (−) is without primers. Control (+) indicates the control vector group.
(§2) (A) Reduced binding of MEF2D to ND6 after neurotoxin treatment. SN4741 cells were treated with MPP+ (25 μM) or rotenone (Rot, 100 nM) for 12 hours. […] Control indicates untreated. […] Control indicates untreated. (C) Immunocytochemical analysis of mitochondrial MEF2D after MPP+ and rotenone treatment. SN4741 cells treated as described in (A) were stained (scale bar, 10 μm). […] Experiments were repeated four times. Control indicates untreated. […] SN4741 cells were treated with MPP+ after infection with the control, Mt2Ddn or Mt2DVP16 or MtND6 lentiviruses for 24 hours (upper graph: different doses of MPP+ for 24 hours; lower graph: 5 μM of MPP+ for different times). Cell viability was measured by WST-1 assay (n=4; *p<0.05; **P<0.01). Control indicates the control vector group.
Andres et al., J Biol Chem, 1995, 270:23246-23249. Moreover, this putative MEF2 binding site is conserved among several species. To test whether MEF2D binds to this putative MEF2 site, electronic mobility shift assay (EMSA) was performed. N-terminal MEF2D formed a complex with the labeled probe containing the ND6 MEF2 site. […] To corroborate this finding, a chromatin immunoprecipitation (ChIP) assay was carried out using highly purified mitochondria. […] ND6 but not ND2 based primers could amplify the bound sequence (FIG. 3C). Sequence analysis of the DNA bound by MEF2D after amplification confirmed the presence of the ND6 MEF2 site (FIG. 3D).

ND6 mRNA = test: Real-time PCR of mitochondria-encoded mRNA levels in SN4741 cells; type: cell-based, mouse; settings: SN4741 cells; relatively short exposure to toxicant
From the text: as §1

MEF2D and ND6 proteins = test: Western blotting of MEF2D, ND6 and PGC1 protein levels in SN4741 cells; type: cell-based, mouse; settings: for level of ND6 protein / level of mitochondrial MEF2D protein / level of MEF2D in the nucleus / level of MEF2D in whole cell: SN4741 cells; for level of ND6 protein / level of mitochondrial MEF2D protein: purified mitochondria, MPP+ 25 μM or rotenone 100 nM for 12 hours; for level of MEF2D in the nucleus / level of MEF2D in whole cell: same toxicant condition
From the text: as §1, §2
(§3) (A) Diagrams of Mt2DVP16 and MtND6. Mt2DVP16 was constructed by fusion of transactivation domain (TAD) of VP16 with DNA-binding domain of MEF2D and a mitochondria-targeting sequence (Mito). […] (C) Over-expression of Mt2DVP16 attenuated MEF2D siRNA-induced reduction of ND6 expression (n=3, **P<0.01).

SN4741 cells [1] = test: Immunocytochemistry, colocalization of MEF2D with MitoTracker; type: cell-based, mouse; settings: SN4741 cells and primary midbrain dopamine neurons; toxicant treatment
Procedure: as §2
SN4741 cells or primary midbrain DA neurons were plated on glass slides in 24-well plates. Localizations of endogenous and exogenous MEF2D were visualized on a Zeiss LSM5 PASCAL confocal microscope. To visualize colocalization of MEF2D with the mitochondria, cells were stained with MitoTracker (Invitrogen) and anti-MEF2D (BD Bioscience) or anti-FLAG (Sigma) antibodies. Quantification of colocalization of signals was done using “Colocalization Analysis” program of software Image Pro (Media Cybernetics). Overlap coefficients of 50 cells in each group were collected. […]

SN4741 cells [2] = test: WST-1 cell viability assay; type: cell-based, mouse; settings: SN4741 cells; different doses of MPP+ for 24 hours
Procedure: as §2
WST-1 assay was done using a kit (cat. no. 11644807001) from Roche and following procedures provided by the manufacturer. WST-1 (4-[3-(4-Iodophenyl)-2-(4-nitrophenyl)-2H-5-tetrazolio]-1,3-benzene disulfonate) is a water-soluble tetrazolium salt whose cleavage by cellular enzymes correlates with cell viability. Cells were seeded in 96-well plates and treated as indicated. Than 10 μl/well of premixed WST-1 Cell Proliferation Reagent was added, and the cells were incubated for an additional 4 hr under the same conditions. Absorbance at 450 nm was measured on a multi-well plate reader (Bio-Tek).

mitochondrial complex I = test: Mitochondrial complex protein level and activity (BN-PAGE, in-gel staining, quantitative assays); type: cell-based, mouse; settings: over-expression in SN4741 cells
From the text: (§4) (A) Requirement of mitochondrial MEF2D for complex I activity. […] Control indicates the control vector group. (B) Over-expression of ND6 rescued complex I activity reduced by Mt2Ddn. Control indicates the control vector group. (C) Measurement of various complex activities. […] Control indicates the control vector group. (D) Effects of over-expression of Mt2D or Mt2Ddn on mitochondrial function. Mt2Ddn reduced cellular ATP level and elevated H2O2 production in SN4741 cells (n=4; *p<0.05; **P<0.01). Control indicates the control vector group.
(§5) Mitochondrial complex I activity was evaluated initially by blue native-polyacrylamide gel electrophoresis (BN-PAGE) and in-gel activity staining. This assay measures total complex I activity. Rotenone sensitive complex I activity and activities of other mitochondrial complexes were further measured by methods described by Antoni et al., J Biol Chem, 1998, 273:14210-14217. Briefly, parallel assays were performed to measure complex I activity at 340 nm using 2,3-dimethoxy-5-methyl-6-n-decyl-1,4-benzoquinone (DB) (50 μM) as acceptor and NADH (0.8 mM) as donor, in 50 mM Tris (pH 8.0) buffer supplemented with 5 mg/ml BSA either without or with the addition of 4 μM rotenone, which gave total and rotenone insensitive complex I activities, respectively. The difference in value between the two provided a quantified measure of the rotenone-sensitive activity. Mitochondrial membrane potential was detected using a kit (cat. no. 280002) from Stratagene following the procedures provided by the manufacturer. The fluorescent dye JC-1 (5,5′,6,6′-tetrachloro-1,1′,3,3′-tetraethylbenzimidazolyl carbocyanine iodide) stains mitochondria red in a membrane potential dependent manner. Briefly, cells were seeded in 96-well plates at 4×10^4 cells/well with 100 μl culture medium and incubated at 33° C. with 5% CO2. After treatment, 10 μl/well of premixed JC-1 staining solution was added, and the cells were incubated for an additional 30 min under the same conditions. After thorough washes, 100 μl assay buffer was added to each well. Fluorescence signal was detected with excitation and emission at 520 nm and 590 nm, respectively, on a multi-well plate reader (Bio-Tek). Cellular ATP and H202 were measured by Bioluminescent Somatic Cell ATP Assay Kit (Sigma) and Hydrogen Peroxide Assay Kit (Cayman), respectively.

SN4741 cells [3] = test: Mitochondrial functional assays (ATP, H2O2, membrane potential); type: cell-based, mouse; settings: over-expression in SN4741 cells
From the text: as §4, §5

[4] = system: human mtDNA fragment containing mitochondrial L-strand promoter (LSP) and ND6 gene; test: In vitro mtDNA L-strand transcription assay; type: biochemical
From the text: as §1

nuclear MEF2 = test: MEF2 luciferase reporter assay; type: cell-based; settings: co-transfected with MEF2 luciferase reporter
From the text: (§6) Control indicates the group co-tranfected with control vector.
MEF2 luciferase reporter assay was done as described Wang et al., J Biol Chem, 2005, 280:16705-16713. Briefly, cells were transiently transfected with various constructs with MEF2 luciferase reporter plasmid (WT, reporter with wild type MEF2 DNA binding sites; mt, reporter with the MEF2 DNA binding sites mutated) using Lipofectimane 2000 (Invitrogen) following procedures provided by the manufacturer. A β-galactosidase expression plasmid was used to determine the efficiency in each transfection. The total amount of DNA for each transfection was kept constant by using control vectors. Cell lysates were analyzed for luciferase and β-galactosidase activity according to the manufacturer's instructions (Roche, cat. no. 11669893001).

SN4741 cells [5] = test: Subcellular localization of over-expressed MEF2D constructs; type: cell-based, mouse; settings: over-expressed in SN4741 cells
From the text: (A) Lack of mitochondrial localization by ΔN30MEF2D. […] VDAC, PARP and c-Raf are Mt, Nu and Cy markers, respectively. Control indicates the control vector group. (B) Immunocytochemistry analysis of mitochondrial localization of transfected Flag-MEF2D. […] Experiments were repeated four times. (C, D) Requirement of mtHsp70 for mitochondria-targeting of MEF2D (n=4; **p<0.01). Control indicates untreated. […]. Knocking down mouse mtHsp70 by siRNA reduced MEF2D level in purified mitochondria from SN4741 cells (C). […] MnSOD is a known mtHsp70-imported mitochondrial matrix protein.
as §3, §6
SN4741 cells or primary midbrain DA neurons were plated on glass slides in 24-well plates. Localizations of endogenous and exogenous MEF2D were visualized on a Zeiss LSM5 PASCAL confocal microscope. […] Quantification of colocalization of signals was done using “Colocalization Analysis” program of software Image Pro (Media Cybernetics). […]

[6] = construct over-expressed in SN4741 cells

Molecule | binding of mitochondrial MEF2D to the ND6 MEF2 site (MEF2D binding to ND6) | mRNA level of ND6 (ND6 mRNA) | level of ND6 protein (MEF2D and ND6 proteins) | level of mitochondrial MEF2D protein (MEF2D and ND6 proteins) | level of MEF2D in the nucleus (MEF2D and ND6 proteins) | level of MEF2D in whole cell (MEF2D and ND6 proteins) | colocalization of MEF2D and MitoTracker signals (SN4741 cells [1]) | neuronal viability (SN4741 cells [2]) | binding of full length MEF2D to the ND6 MEF2 site (MEF2D binding to ND6; [6]) | ND6 protein level / expression (MEF2D and ND6 proteins; [6]) | mitochondrial complex I activity (mitochondrial complex I) | cellular ATP level (SN4741 cells [3]) | hydrogen peroxide production by mitochondria (SN4741 cells [3]) | mitochondrial membrane potential (SN4741 cells [3]; JC-1) | level of L-strand promoter (LSP) transcripts [4] | nuclear MEF2 activity (MEF2 reporter) (nuclear MEF2) | mitochondrial localization by immunocytochemical staining (MitoTracker) (SN4741 cells [5])
C[n+]1ccc(-c2ccccc2)cc1 [MPP+, 1-methyl-4-phenylpyridinium] | greatly reduced | greatly reduced | decrease | decrease | not affected | not affected | preferentially reduced | loss of neuronal viability in a dose dependent manner |  |  |  |  |  |  |  |  | 
C=C(C)[C@H]1Cc2c(ccc3c2O[C@@H]2COc4cc(OC)c(OC)cc4[C@@H]2C3=O)O1 [rotenone] | greatly reduced | greatly reduced | decrease | decrease | not affected | not affected | preferentially reduced |  |  |  |  |  |  |  |  |  | 
Mt2D: Mitochondria-targeting active MEF2D: mouse MEF2D 1-493aa with added mitochondria-targeting signal, lacking nuclear localization signals (protein, UniProt Q63943 1-493, looked up, fragment, mitochondria-targeting signal added) MGRKKIQIQRITDERNRQVTFTKRKFGLMKKAYELSVLCDCEIALIIFNHSNKLFQYASTDMDKVLLKYTEYNEPHESRTNADIIETLRKKGFNGCDSPEPDGEDSLEQSPLLEDKYRRASEELDGLFRRYGSSVPAPNFAMPVTVPVSNQSSMQFSNPSSSLVTPSLVTSSLTDPRLLSPQQPALQRNSVSPGLPQRPASAGAMLGGDLNSANGACPSPVGNGYVSARASPGLLPVANGNSLNKVIPAKSPPPPTHNTQLGAPSRKPDLRVITSQGGKGLMHHLTEDHLDLNNAQRLGVSQSTHSLTTPVVSVATPSLLSQGLPFSSMPTAYNTDYQLPSAELSSLPAFSSPAGLALGNVTAWQQPQPPQQPQPPQPPQSQPQPPQPQPQQPPQQQPHLVPVSLSNLIPGSPLPHVGAALTVTTHPHISIKSEPVSPSRERSPAPPPPAVFPAARPEPGEGLSSPAGGSYETGDRDDGRGDFGPTLGLLRPA |  |  |  |  |  |  |  |  | modulated | did not significantly change | neither increased the protein level nor the activity | did not alter | did not alter | did not alter | increases | did not affect | targeted exclusively to mitochondria
MEF2D1-131: dominant-negative form of MEF2D which interferes with nuclear MEF2 function (protein, UniProt Q63943 1-131, looked up, fragment) MGRKKIQIQRITDERNRQVTFTKRKFGLMKKAYELSVLCDCEIALIIFNHSNKLFQYASTDMDKVLLKYTEYNEPHESRTNADIIETLRKKGFNGCDSPEPDGEDSLEQSPLLEDKYRRASEELDGLFRRY |  |  |  |  |  |  |  |  |  |  |  |  |  |  |  | interferes with nuclear MEF2 function | 
